Here are results for 18 compounds from US9725467B2, “Fluorinated benzenesulfonamides as inhibitors of carbonic anhydrase” (VILNIUS UNIVERSITY, priority 2012, dated 2017).

The target of assay [1] is T1, CA I (Homo sapiens, UniProt P00915). As to the kind of experiment: Fluorescent thermal shift assay (TSA), CA I. Format: binding. Particulars: 37° C., pH 7.0, read-out: Dissociation constants Kd to CA I (converted).
Assay [2] concerns the target T2, CA XII (Homo sapiens, UniProt O43570). As to the kind of experiment: Fluorescent thermal shift assay (TSA), CA XII. The conditions noted are these: 37° C., pH 7.0, read-out: Dissociation constants Kd to CA XII (converted). Format: binding.
In assay [3] the target is T3, CA VII (Homo sapiens, UniProt P43166). As to the kind of experiment: Fluorescent thermal shift assay (TSA), CA VII. The format is binding. Particulars: 37° C., pH 7.0, read-out: Dissociation constants Kd to CA VII (converted).
Assay [4] deals with T4, CA II (Homo sapiens, UniProt P00918). Kind of assay: Fluorescent thermal shift assay (TSA), CA II. The format is binding. The conditions noted are these: 37° C., pH 7.0, read-out: Dissociation constants Kd to CA II (converted).
Assay [5] addresses T5, CA XIII (Homo sapiens, UniProt Q8N1Q1). As to the kind of experiment: Fluorescent thermal shift assay (TSA), CA XIII. The conditions noted are these: 37° C., pH 7.0, read-out: Dissociation constants Kd to CA XIII. The format is binding.
For assay [6], the target named is T4, CA II. As to the kind of experiment: CO2 hydration assay (stopped-flow). The format is biochemical.
Assay [7] addresses T2, CA XII. As to the kind of experiment: Isothermal titration calorimetry (ITC), CA XII. The format is binding. Particulars: 37° C., pH 7.0, read-out: Dissociation constants Kd to CA XII.
Assay [8] concerns the target T3, CA VII. As to the kind of experiment: Isothermal titration calorimetry (ITC), CA VII. The format is binding. The conditions noted are these: 37° C., pH 7.0, read-out: Dissociation constants Kd to CA VII.
The target in assay [9] is T5, CA XIII. Kind of assay: biochemical.
Assay [10] has as its target T1, CA I. As to the kind of experiment: Isothermal titration calorimetry (ITC), CA I. The format is binding. Particulars: 37° C., pH 7.0, read-out: Dissociation constants Kd to CA I. (In general: Isothermal titration calorimetry measures the heat released or taken up as one component is titrated into another.)
Assay [11] addresses T4, CA II. As to the kind of experiment: biochemical.

T2 sequence (O43570 30-291 limits assumed): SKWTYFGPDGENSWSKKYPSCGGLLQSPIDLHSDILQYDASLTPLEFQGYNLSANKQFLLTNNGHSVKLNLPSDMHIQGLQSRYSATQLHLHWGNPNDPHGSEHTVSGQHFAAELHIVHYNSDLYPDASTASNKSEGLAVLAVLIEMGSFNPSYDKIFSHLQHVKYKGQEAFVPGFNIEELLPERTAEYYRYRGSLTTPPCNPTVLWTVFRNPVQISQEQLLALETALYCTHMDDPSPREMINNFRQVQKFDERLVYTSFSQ
T5 sequence (Q8N1Q1 whole entry): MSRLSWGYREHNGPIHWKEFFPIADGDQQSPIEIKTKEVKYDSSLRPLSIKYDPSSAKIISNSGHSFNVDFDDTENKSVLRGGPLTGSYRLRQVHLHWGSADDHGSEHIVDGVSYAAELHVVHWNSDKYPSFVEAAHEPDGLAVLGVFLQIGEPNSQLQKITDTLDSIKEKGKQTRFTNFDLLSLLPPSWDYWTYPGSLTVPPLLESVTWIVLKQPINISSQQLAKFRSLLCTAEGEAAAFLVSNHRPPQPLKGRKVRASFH
T3 sequence (P43166 whole entry): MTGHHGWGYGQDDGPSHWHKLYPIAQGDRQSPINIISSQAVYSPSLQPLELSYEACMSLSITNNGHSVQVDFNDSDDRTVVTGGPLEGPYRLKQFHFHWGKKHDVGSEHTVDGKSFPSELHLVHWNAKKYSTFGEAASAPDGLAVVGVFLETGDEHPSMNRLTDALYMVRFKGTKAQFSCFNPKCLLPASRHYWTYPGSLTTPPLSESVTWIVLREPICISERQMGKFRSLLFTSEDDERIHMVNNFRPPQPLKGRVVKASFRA
T1 sequence (P00915 whole entry): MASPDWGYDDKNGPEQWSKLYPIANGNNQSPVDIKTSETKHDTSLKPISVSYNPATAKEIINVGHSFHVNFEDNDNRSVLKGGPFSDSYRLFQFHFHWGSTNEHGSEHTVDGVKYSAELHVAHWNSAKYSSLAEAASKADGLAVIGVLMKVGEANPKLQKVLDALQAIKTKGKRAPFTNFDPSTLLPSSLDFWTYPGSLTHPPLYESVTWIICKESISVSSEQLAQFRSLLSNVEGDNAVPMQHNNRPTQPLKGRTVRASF

For the compound “3-{[4-(aminosulfonyl)-2,3,5,6-tetrafluorophenyl]thio}-[1,2,3]thiadiazolo[3,4-a]benzimidazole [Compound 2w]”, the figures for the equilibrium dissociation constant (Kd) in assay [1], in [2] and in assay [3] were 0.4 nM, 110 nM and 13 nM, respectively.

For `CC(C)Nc1c(F)c(SCCc2ccccc2)c(F)c(F)c1S(N)(=O)=O` [Compound 3a, 2-(isopropylamino)-3,5,6-trifluoro-4-[(2-phenylethyl)thio]benzenesulfonamide], the Kd (usually a measure of binding affinity in units of concentration) in assay [1] is 3300 nM; in assay [2] it was 2900 nM; in assay [4], 500 nM; in [5], 67 nM; in [3] it was 130 nM.

With `CC(Nc1c(F)c(SCCc2ccccc2)c(F)c(F)c1S(N)(=O)=O)c1ccccc1` (stereo not shown) [Compound 3d, 2-[(1-phenylethyl)amino]-3,5,6-trifluoro-4-[(2-phenylethyl)thio]benzenesulfonamide], the Kd in [1] was 1700 nM; in assay [2], 5000 nM; in [4], 3300 nM; in assay [5], 40 nM; in assay [3], 4000 nM.

On to `NS(=O)(=O)c1c(F)c(F)c(SCCc2ccccc2)c(F)c1NC1CCCCC1` [Compound 3f, 2-(cyclohexylamino)-3,5,6-trifluoro-4-[(2-phenylethyl)thio]benzenesulfonamide], for which the Kd in assay [1] was 25000 nM; in assay [2], 500 nM; in assay [4] it was 250 nM; in [5], 500 nM; in assay [3] it was 170 nM.

`NS(=O)(=O)c1c(F)c(F)c(SCCc2ccccc2)c(F)c1NC1Cc2ccccc2C1` [Compound 3l, 2-(2,3-dihydro-1H-inden-2-ylamino)-3,5,6-trifluoro-4-[(2-phenylethyl)thio]benzenesulfonamide]: the Kd in [1] was 5000 nM; in assay [2], 1700 nM; in [4], 3300 nM; in [5] it was 100 nM; in [3], 4000 nM.

Regarding `NS(=O)(=O)c1c(F)c(F)c(SCCO)c(F)c1N[C@H]1CCc2ccccc21` [Compound 4e, 2-[(1S)-2,3-dihydro-1H-inden-1-ylamino]-3,5,6-trifluoro-4-[(2-hydroxyethyl)thio]benzenesulfonamide], the Kd in assay [1] is 8300 nM; in [2], 1250 nM; in [4], 2780 nM; in assay [5], 33.3 nM; in [3] it was 1100 nM. Also, in assay [6], the inhibition constant (Ki) (commonly the dissociation constant of the complex between target and ligand, obtained from inhibition or displacement) is 500 nM.

As for `NS(=O)(=O)c1c(F)c(F)cc(F)c1NC1CCCCCCC1` [Compound 8a, 2-(cyclooctylamino)-3,5,6-trifluorobenzenesulfonamide], the Kd in [1] was 167 nM; in [2] it was 833 nM; in assay [4], 200 nM; in assay [5] it was 100 nM; in assay [3], 167 nM.

`CNc1c(F)c(S(N)(=O)=O)c(F)c(F)c1S(=O)(=O)CCc1ccccc1` [Compound 9a, 3-(methylamino)-2,5,6-trifluoro-4-[(2-phenylethyl)sulfonyl]benzenesulfonamide]: the Kd in assay [1] was 67 nM; in assay [5] it was 1.3 nM; in [3], 8.3 nM.

In the case of `NS(=O)(=O)c1c(F)c(F)c(S(=O)(=O)CCc2ccccc2)c(NCc2ccccc2)c1F` [Compound 9c, 3-(benzylamino)-2,5,6-trifluoro-4-[(2-phenylethyl)sulfonyl]benzenesulfonamide], the Kd in assay [1] was 56 nM; in [5], 2.5 nM; in assay [3], 5 nM.

Take `NS(=O)(=O)c1c(F)c(F)c(S(=O)(=O)CCc2ccccc2)c(NCCc2ccccc2)c1F` [Compound 9d, 3-[(2-phenylethy)amino]-2,5,6-trifluoro-4-[(2-phenylethyl)sulfonyl]benzenesulfonamide]: the Kd in [1] is 500 nM; in [2], 33 nM; in [4] it was 17 nM; in [5], 6.7 nM; in [3], 4 nM.

Turning to `COc1cccc(OC)c1CNc1c(F)c(S(N)(=O)=O)c(F)c(F)c1S(=O)(=O)CCc1ccccc1` [Compound 9h, 3-[(2,6-dimethoxybenzyl)amino]-2,5,6-trifluoro-4-[(2-phenylethyl)sulfonyl]benzenesulfonamide], the Kd in [1] is 58.8 nM; in assay [2], 167 nM; in [4], 22.2 nM; in assay [5], 8.3 nM; in assay [3], 667 nM.

`COc1ccc(CNc2c(F)c(S(N)(=O)=O)c(F)c(F)c2S(=O)(=O)CCc2ccccc2)cc1OC` [Compound 9i, 3-[(3,4-dimethoxybenzyl)amino]-2,5,6-trifluoro-4-[(2-phenylethyl)sulfonyl]benzenesulfonamide]: the equilibrium dissociation constant (Kd) in assay [1] was 213 nM; in assay [2] it was 250 nM; in assay [4], 22.2 nM; in [5] it was 3.3 nM; in assay [3], 6.7 nM.

Turning to `NS(=O)(=O)c1c(F)c(F)c(S(=O)(=O)CCc2ccccc2)c(NC23CC4CC(CC(C4)C2)C3)c1F` [Compound 9j, 3-(1-adamantylamino)-2,5,6-trifluoro-4-[(2-phenylethyl)sulfonyl]benzenesulfonamide], the Kd in assay [1] is 500 nM; in assay [2], 17 nM; in assay [4], 50 nM; in [5], 5.6 nM; in assay [3], 5 nM.

Consider `NS(=O)(=O)c1c(F)c(F)c(S(=O)(=O)CCc2ccccc2)c(N[C@@H](c2ccccc2)[C@H](O)c2ccccc2)c1F` [Compound 9n, 3-{[(1S,2R)-2-hydroxy-1,2-diphenylethyl]amino}-2,5,6-trifluoro-4-[(2-phenylethyl)sulfonyl]benzenesulfonamide], for which the Kd is 1700 nM in assay [1]; 250 nM in assay [2]; 33 nM in [4]; 5.6 nM in assay [5]; 10 nM in assay [3].

Consider `NS(=O)(=O)c1c(F)c(F)c(S(=O)(=O)CCc2ccccc2)c(N[C@H](c2ccccc2)[C@@H](O)c2ccccc2)c1F` [Compound 9o, 3-{[(1R,2S)-2-hydroxy-1,2-diphenylethyl]amino}-2,5,6-trifluoro-4-[(2-phenylethyl)sulfonyl]benzenesulfonamide], for which the Kd in assay [1] is 770 nM; in assay [2], 400 nM; in assay [4], 91 nM; in [5], 6.7 nM; in [3] it was 40 nM.

Consider `NS(=O)(=O)c1c(F)c(F)c(S(=O)(=O)CCO)c(NCc2ccccc2)c1F` [Compound 10a, 3-(benzylamino)-2,5,6-trifluoro-4-[(2-hydroxyethyl)sulfonyl]benzenesulfonamide], for which the Kd was 12.2 nM in [7]; 200 nM in [1]; 405 nM in assay [8]; 45.2 nM in assay [9]; 14 nM in assay [5]; 130 nM in assay [10]. The Kd in assay [11] was 139 nM; in [3] it was 130 nM.

As for `COc1cccc(OC)c1CNc1c(F)c(S(N)(=O)=O)c(F)c(F)c1S(=O)(=O)CCO` [Compound 10d, 3-[(2,6-dimethoxybenzyl)amino]-2,5,6-trifluoro-4-[(2-hydroxyethyl)sulfonyl]benzenesulfonamide], the dissociation constant Kd in assay [1] is 200 nM; in assay [2] it was 66.7 nM; in [4] it was 16.7 nM; in assay [5] it was 25 nM; in assay [3] it was 40 nM.

Take `COc1ccc(CNc2c(F)c(S(N)(=O)=O)c(F)c(F)c2S(=O)(=O)CCO)cc1OC` [Compound 10e, 3-[(3,4-dimethoxybenzyl)amino]-2,5,6-trifluoro-4-[(2-hydroxyethyl)sulfonyl]benzenesulfonamide]: the Kd in assay [1] is 83.3 nM; in assay [2], 66.7 nM; in [4] it was 25 nM; in [5], 4.3 nM; in assay [3], 14.3 nM.
